# Measurements: patent US20250066286A1, “COMPOSITIONS OF (Z)-ENDOXIFEN AND METHODS OF ENRICHMENT THEREOF” (Atossa Therapeutics, Inc., priority 2022, published 2025)
# Key:
# Assay type in all cases: physicochemical
# [1] = Precipitation of (Z)-endoxifen by antisolvent addition, PAD and PAI (XRPD)
# Protocol: Further (Z)-endoxifen crystallizations were performed utilizing antisolvents to affect precipitation. (Z)-endoxifen was dissolved in various solvents to obtain suspensions at room temperature that were then stirred overnight and filtered with a nylon filter (0.22 μm) to obtain a clear stock solution. Two different types of precipitation experiments were performed with the resulting clear stock solutions. For precipitation by antisolvent addition to a saturated solution (PAD) experiments, antisolvent was added dropwise to the clear stock solution during stirring at room temperature at a ratio of 1:5 or 1:10 stock solution:antisolvent. For precipitation by saturated solution addition to an antisolvent (PAI) experiments, the clear stock solution was added drop wise to antisolvent under magnetic stirring at room temperature at a ratio of 1:5 or 1:10 stock solution:antisolvent. All obtained precipitates from PAD and PAI experiments were filtered under vacuum and analyzed by XRPD. […] After storage if there was no precipitate, the solutions were evaporated at room temperature. All obtained precipitates were filtered under vacuum and analyzed by XRPD. PAD and PAI experiments were also performed on the clear solutions with a concentration of 20 mg/ml (Z)-endoxifen recovered from the solubility experiments, described in EXAMPLE 19. The clear solutions recovered were (Z)-endoxifen solutions in ethyl acetate, butyl acetate, 4-met-2-pentanone, and toluene. The procedure for the PAI and PAD was the same as described above.
# [2] = Scale-up crystallizations of (Z)-endoxifen Form I, Form IV, Form VII (XRPD); conditions: ethyl acetate 0.8 mL sat, heptane 4 mL, RT to −20 °C, 1 d
# Protocol: The acetonitrile slurry method for generating Form I (EXAMPLE 5) was performed on a 800 mg-scale. For this crystallization, 800 mg (Z)-endoxifen was partially dissolved in 8 ml acetonitrile at a concentration of 100 mg/ml and left under magnetic stirring at 50° C. for 2 days. Solid (Z)-endoxifen was collected from the slurry and analyzed by XRPD, confirming that the resultant solid was Form I. The remaining slurry was then filtered with a 0.45p m paper filter under vacuum and analyzed by XRPD, which indicated a yield of 94% for the resultant Form I
# The EXAMPLE 6 procedure for generating Form IV by precipitation from 2-propanol/ethyl acetate (50/50 v/v) systems was scaled to both 500 mg and 1 g. For these crystallizations, (Z)-endoxifen was added to 2-propanol/ethyl acetate 50/50 (v/v) mixtures to achieve concentrations of 100 mg/ml. The solvent mixtures were then heated to 65° C. Once complete dissolution of (Z)-endoxifen occurred, the solvent mixtures were cooled to 25° C. at a rate of 0.2° C./minute. The solutions were maintained at 25° C. with stirring for 18 hours, and then vacuum filtered with a 0.45 μm paper filter.
# The ethyl acetate:heptane crystallizations outlined in EXAMPLE 10 were repeated at larger scales. […]
# [3] = Precipitation of (Z)-endoxifen by cooling, gradient precipitation (XRPD); conditions: GRAD
# Protocol: Z)-endoxifen was precipitated by cooling various single and multi- solvent systems. […] The crystallizations utilized cooling rates of 0.5° C./minute or 0.2° C./minute. The samples were then incubated 25° C. with stirring for approximately 15 hours. Some solutions generated precipitate, which was recovered by filtration with a nylon filter (0.22 μm) during centrifugation at 4000 rpm for 3 minutes.
# The resulting precipitate was recovered by filtration with a nylon filter (0.22 μm) during centrifugation at 4000 rpm for 3 minutes.
# All precipitates were collected for XRPD analysis.
# [4] = PAD--GRAD-EVRT, butyl acetate 0.15 mL, butyl methyl ether 1.5 mL, RT
# [5] = PAD--GRAD-EVRT, tetrahydrofuran 0.03 mL sat, acetone 0.3 mL, RT
# [6] = PAD-GRAD-EVRT, ethyl acetate 0.15 mL, butyl methyl ether 1.5 mL, RT
# [7] = PAD-GRAD-EVRT, toluene 0.15 mL, butyl methyl ether 1.5 mL, RT
# [8] = PAD, butyl acetate 0.15 mL, 20 mg/mL, antisolvent heptane 0.75 mL, RT
# [9] = PAD, butyl acetate 0.15 mL, 20 mg/mL, antisolvent heptane 1.5 mL, RT
# [10] = PAD, ethyl acetate 0.15 mL, 20 mg/mL, antisolvent heptane 0.75 mL, RT
# [11] = PAD, ethyl acetate 0.15 mL, 20 mg/mL, antisolvent heptane 1.5 mL, RT
# [12] = PAD, tetrahydrofuran 0.03 mL sat, heptane 0.15 mL, RT
# [13] = PAD, tetrahydrofuran 0.03 mL sat, water 0.15 mL, RT
# [14] = PAD, tetrahydrofuran 0.03 mL sat, water 0.3 mL, RT
# [15] = PAD, toluene 0.15 mL, 20 mg/mL, antisolvent heptane 1.5 mL, RT
# [16] = PAI-GRAD-EVRT, tetrahydrofuran 0.03 mL sat, acetone 0.3 mL, RT
# [17] = PAI, tetrahydrofuran 0.03 mL sat, heptane 0.15 mL, RT
# [18] = PAI, tetrahydrofuran 0.03 mL sat, water 0.3 mL, RT
# [19] = 2-propanol 0.5 mL, 20 mg/mL, 75 to 25 °C, ramp −0.2
# [20] = acetone 0.5 mL, 20 mg/mL, 25 to −20 °C, ramp not controlled, 3 d
# [21] = acetonitrile 0.5 mL, 20 mg/mL, 75 to 25 °C, ramp −0.2
# [22] = butyl acetate 0.5 mL, 100 mg/mL, 100 to 25 °C, ramp −0.2
# [23] = ethanol 0.5 mL, 20 mg/mL, 75 to 25 °C, ramp −0.2
smiles,measurement,setting,value
"CC/C(=C(\c1ccc(O)cc1)c1ccc(OCCNC)cc1)c1ccccc1 [(Z)-endoxifen, (Z)-4-(1-(4-(2-(methylamino)ethoxy)phenyl)-2-phenylbut-1-enyl)phenol]",Output Crystallinity [high/low/SC/oriented],[1]; [4],low
same,Output Main phase [phase],[1]; [4],Form I
same,Output Main phase [phase],[1]; [5],Form XII
same,Output Traces [phase],[1]; [5],Form I
same,Output Main phase [phase],"[1]; PAD-GRAD-EVRT, dimethylformamide 0.15 mL sat, butyl methyl ether 1.5 mL, RT",Form I
same,Output Crystallinity [high/low/SC/oriented],[1]; [6],low
same,Output Main phase [phase],[1]; [6],Form I
same,Output Crystallinity [high/low/SC/oriented],[1]; [7],low
same,Output Main phase [phase],[1]; [7],Form VIII
same,Output Main phase [phase],"[1]; PAD-GRAD, butyl acetate 0.15 mL, butyl methyl ether 1.5 mL, 25 to −20 °C, ramp not controlled, 1 d",no solid
same,Output Main phase [phase],"[1]; PAD-GRAD, dimethylformamide 0.15 mL sat, butyl methyl ether 1.5 mL, RT to −20 °C, 1 d",no solid
same,Output Main phase [phase],"[1]; PAD-GRAD, ethyl acetate 0.15 mL, butyl methyl ether 1.5 mL, 25 to −20 °C, ramp not controlled, 1 d",no solid
same,Output Main phase [phase],"[1]; PAD-GRAD, methyl isobutyl ketone 0.15 mL, butyl methyl ether 1.5 mL, 25 to −20 °C, ramp not controlled, 1 d",no solid
same,Output Main phase [phase],"[1]; PAD-GRAD, tetrahydrofuran 0.03 mL sat, acetone 0.3 mL, RT to −20 °C, 1 d",no solid
same,Output Main phase [phase],"[1]; PAD-GRAD, toluene 0.15 mL, butyl methyl ether 1.5 mL, 25 to −20 °C, ramp not controlled, 1 d",no solid
same,Output Main phase [phase],"[1]; PAD, butyl acetate 0.15 mL, 20 mg/mL, antisolvent butyl methyl ether 0.75 mL, RT",no solid
same,Output Main phase [phase],"[1]; PAD, butyl acetate 0.15 mL, 20 mg/mL, antisolvent butyl methyl ether 1.5 mL, RT",no solid
same,Output Crystallinity [high/low/SC/oriented],[1]; [8],low
same,Output Main phase [phase],[1]; [8],no solid
same,Output Crystallinity [high/low/SC/oriented],[1]; [9],low
same,Output Main phase [phase],[1]; [9],Form IX
same,Output Main phase [phase],"[1]; PAD, dimethylformamide 0.15 mL sat, butyl methyl ether 0.75 mL, RT",no solid
same,Output Main phase [phase],"[1]; PAD, dimethylformamide 0.15 mL sat, butyl methyl ether 1.5 mL, RT",no solid
same,Output Main phase [phase],"[1]; PAD, dimethylformamide 0.15 mL sat, water 0.75 mL, RT",amorphous
same,Output Main phase [phase],"[1]; PAD, ethyl acetate 0.15 mL, 20 mg/mL, antisolvent butyl methyl ether 0.75 mL, RT",no solid
same,Output Main phase [phase],"[1]; PAD, ethyl acetate 0.15 mL, 20 mg/mL, antisolvent butyl methyl ether 1.5 mL, RT",no solid
same,Output Crystallinity [high/low/SC/oriented],[1]; [10],low
same,Output Main phase [phase],[1]; [10],no solid
same,Output Crystallinity [high/low/SC/oriented],[1]; [11],low
same,Output Main phase [phase],[1]; [11],Form IX
same,Output Main phase [phase],"[1]; PAD, methyl isobutyl ketone 0.15 mL, 20 mg/mL, antisolvent butyl methyl ether 0.75 mL, RT",no solid
same,Output Main phase [phase],"[1]; PAD, methyl isobutyl ketone 0.15 mL, 20 mg/mL, antisolvent butyl methyl ether 1.5 mL, RT",no solid
same,Output Main phase [phase],"[1]; PAD, methyl isobutyl ketone 0.15 mL, 20 mg/mL, antisolvent heptane 0.75 mL, RT",no solid
same,Output Main phase [phase],"[1]; PAD, methyl isobutyl ketone 0.15 mL, 20 mg/mL, antisolvent heptane 1.5 mL, RT",no solid
same,Output Main phase [phase],"[1]; PAD, tetrahydrofuran 0.03 mL sat, acetone 0.15 mL, RT",no solid
same,Output Main phase [phase],"[1]; PAD, tetrahydrofuran 0.03 mL sat, acetone 0.3 mL, RT",no solid
same,Output Crystallinity [high/low/SC/oriented],[1]; [12],low
same,Output Main phase [phase],[1]; [12],Form XIX
same,Output Crystallinity [high/low/SC/oriented],[1]; [13],low
same,Output Main phase [phase],[1]; [13],no solid
same,Output Crystallinity [high/low/SC/oriented],[1]; [14],low
same,Output Main phase [phase],[1]; [14],Form IV
same,Output Main phase [phase],"[1]; PAD, toluene 0.15 mL, 20 mg/mL, antisolvent butyl methyl ether 0.75 mL, RT",no solid
same,Output Main phase [phase],"[1]; PAD, toluene 0.15 mL, 20 mg/mL, antisolvent butyl methyl ether 1.5 mL, RT",no solid
same,Output Main phase [phase],"[1]; PAD, toluene 0.15 mL, 20 mg/mL, antisolvent heptane 0.75 mL, RT",no solid
same,Output Crystallinity [high/low/SC/oriented],[1]; [15],low
same,Output Main phase [phase],[1]; [15],Amorphous
same,Output Main phase [phase],"[1]; PAI-GRAD-EVRT, dimethylformamide 0.15 mL sat, butyl methyl ether 1.5 mL, RT",Form I
same,Output Main phase [phase],[1]; [16],Form XII
same,Output Traces [phase],[1]; [16],Form XIII
same,Output Main phase [phase],"[1]; PAI-GRAD, dimethylformamide 0.15 mL sat, butyl methyl ether 1.5 mL, RT to −20 °C, 1 d",no solid
same,Output Main phase [phase],"[1]; PAI-GRAD, tetrahydrofuran 0.03 mL sat, acetone 0.3 mL, RT to −20 °C, 3 d",no solid
same,Output Main phase [phase],"[1]; PAI, dimethylformamide 0.15 mL sat, butyl methyl ether 1.5 mL, RT",no solid
same,Output Main phase [phase],"[1]; PAI, dimethylformamide 0.15 mL sat, water 0.75 mL, RT",Form I
same,Output Main phase [phase],"[1]; PAI, tetrahydrofuran 0.03 mL sat, acetone 0.3 mL, RT",no solid
same,Output Crystallinity [high/low/SC/oriented],[1]; [17],low
same,Output Main phase [phase],[1]; [17],Form XIX
same,Output Crystallinity [high/low/SC/oriented],[1]; [18],low
same,Output Main phase [phase],[1]; [18],Form IV
same,XRPD Results Phase in traces,[2]; PAD-GRAD,Form XVI
same,XRPD Results Phase in traces,[2]; PAI-GRAD,Form IX
same,Output Crystallinity [high/low/SC/oriented],[3]; [19],low
same,Output Main phase [phase],[3]; [19],Form I
same,Output Main phase [phase],"[3]; 2-propanol 0.5 mL, 100 mg/mL, 75 to 25 °C, ramp −0.2",Form I
same,Output Crystallinity [high/low/SC/oriented],[3]; [20],low
same,Output Main phase [phase],[3]; [20],Form I
same,Output Crystallinity [high/low/SC/oriented],[3]; [21],low
same,Output Main phase [phase],[3]; [21],Form V
same,Output Crystallinity [high/low/SC/oriented],[3]; [22],low
same,Output Main phase [phase],[3]; [22],Form I
same,Output Crystallinity [high/low/SC/oriented],[3]; [23],low
same,Output Main phase [phase],[3]; [23],Form I
same,Output Main phase [phase],"[3]; ethanol 0.5 mL, 100 mg/mL, 75 to 25 °C, ramp −0.2",Form I
same,Output Main phase [phase],"[3]; ethyl acetate 0.5 mL, 100 mg/mL, 75 to 25 °C, ramp −0.2",Form I
same,Output Main phase [phase],"[3]; methyl isobutyl ketone 0.5 mL, 100 mg/mL, 25 to −20 °C, ramp not controlled, 1 d",Form X
